Assay results as given in patent US20220299513A1, “IRF2 AS A PROGNOSTIC BIOMARKER AND TARGET FOR AUGMENTING IMMUNOTHERAPY” (University of Massachusetts, priority 2019, published 2022).

Legend:
[1] = tested on: IRF2 mRNA in F221 murine sarcoma cells; test: IRF2 mRNA levels by qPCR in drug-treated F221 cells; assay type: cell-based; details: Vorinostat 1 uM or 5 uM, Decitabine 5 uM, 24 hrs, vs DMSO control
Procedure: (§1) FIGS. 13A-B. (A) IRF2 & TAP2 mRNA levels, and MHC I surface protein levels in […] murine sarcoma cells treated with Vorinostat (1 uM or 5 uM), Decitabine (5 uM), or control diluent (DMSO) with no drug; (B) surface expression of MHC I on […] MCA-sarcoma cells treated with Vorinostat (5 uM) and/or Decitabine (5 uM). RNA was extracted from cell lines using the RNeasy kit (Qiagen) or from formalin-fixed paraffin-embedded non-small cell lung cancers using the RNeasy FFPE kit (Qiagen) and reverse transcribed to cDNA using EcoDry pre-mix random hexamers (Clontech). 50 ng cDNA were used per well (done in triplicate) with indicated TaqMan probes (Applied Biosystems), according to the manufacturer's instructions. The TaqMan probes used were as follows: We tested two epigenetic modifiers on an IRF2low, MHC I low murine cancer cell line ([…] MCA-sarcoma). […] murine sarcoma cells were treated with Vorinostat (1 uM or 5 uM), Decitabine (5 uM), or control diluent (DMSO) with no drug for 24 hrs and then assayed for IRF2 and TAP2 mRNA levels by qPCR and MHC I protein levels by flow cytometry.

[2] = tested on: TAP2 mRNA in F221 murine sarcoma cells; test: TAP2 mRNA levels by qPCR in drug-treated F221 cells; assay type: cell-based; details: Vorinostat 1 uM or 5 uM, Decitabine 5 uM, 24 hrs, vs DMSO control
Procedure: as §1

[3] = tested on: surface MHC I (H-2Kb) on F221 MCA-sarcoma cells; test: Surface MHC I protein levels by flow cytometry in drug-treated F221 cells; assay type: cell-based; details: F221 murine sarcoma cells; Vorinostat 1 uM or 5 uM, Decitabine 5 uM; 24 hrs; vs DMSO control
Description: Where indicated, mouse cells were blocked with 2.4G2 and stained for surface MHC class I levels with anti-K^b-APC (eBioscience, AF6-88.5.5.3), MHC class II levels with anti-I^A/I^E-PECy7 (BioLegend, M5/114.15.2), PD-L1 levels with anti-PD-L1-PE (BioLegend, 10F.9G2), or with isotype controls (eBioscience mouse IgG2a-APC eBM2a, eBioscience rat IgG2b κ-PE eB149) at 1:200 dilutions.
We tested two epigenetic modifiers on an IRF2low, MHC I low murine cancer cell line (F221 MCA-sarcoma). F221 murine sarcoma cells were treated with Vorinostat (1 uM or 5 uM), Decitabine (5 uM), or control diluent (DMSO) with no drug for 24 hrs and then assayed for IRF2 and TAP2 mRNA levels by qPCR and MHC I protein levels by flow cytometry.
In addition, F221 MCA-sarcoma cells were treated with a combination of Vorinostat (5 uM) and/or Decitabine (5 uM) for 24 hrs and then surface expression of MEW I molecules were quantified by flow cytometry.

[4] = tested on: surface MHC-I on IRF2-KO DC3.2; test: Surface MHC-I on IRF2-KO DC3.2 after interferon stimulation (flow cytometry); assay type: cell-based, mouse
Procedure: (§2) FIGS. 5A-E. IRF2-IRF1 balance. (A) Normalized MFI of surface MHC I and PD-L1 levels on the indicated single or double (IRF1+IRF2, double knock out (DKO)) DC3.2 knockout lines after overnight incubation with either media alone or 2 ng/mL IFNγ; bars represent mean+SEM (N≥3); (B) Western blot for IRF1 and IRF2 (and β-actin as loading control) in the DC3.2 knockout lines in the absence or presence of 2 ng/mL IFNγ for the durations indicated; (C) ChIP-qPCR of DC3.2 WT cells stimulated with ±2 ng/mL IFNγ for 2 hrs for TAP2 (top), ERAP1 (middle), or PD-L1 (bottom) DNA with rabbit anti-IRF2 IgG, rabbit anti-IRF1 IgG, or normal rabbit IgG (control). Bars represent mean +SEM fold enrichment (2^^-ΔCt) over the normal rabbit IgG control IP (N=2); (d, e) Heatmap of genes differentially expressed between the DC knockout lines (D) at baseline or (E) after stimulation with ±2 ng/mL IFNγ for 2 hrs. For clarity, only a few genes are shown. Statistical analysis by two-tailed ratio paired t-tests. *p<0.05, **p<0.01, ***p<0.001, ****p<0.0001, ns=not significant.
FIGS. 10A-B. (A) Normalized MFI of surface MHC I and PD-L1 levels on DC3.2 stable knockout lines after overnight incubation with 5,000 U/mL IFNα; bars represent mean+SEM (N=3). Statistical analysis by two-tailed ratio paired t-tests. […]

[5] = tested on: surface MHC-I on A549 cells; test: Surface MHC-I on IFNγ-stimulated A549 (flow cytometry); assay type: cell-based, human; details: overnight IFNγ stimulation
Description: (§3) FIGS. 6A-J. IRF2 and cancer. (A) Differential IRF2 expression in tumor and normal tissue from patients with the indicated cancer types (TCGA abbreviations), as queried from TIMER^29; (B) IRF2 mRNA expression in patient NSCLC specimens scored as PD-L1 low (1-50%) or high (>50%) by immunohistochemistry. IRF2 mRNA expression was normalized to GAPDH mRNA expression in each lung specimen and then IRF2 expression across specimens was compared by calculating fold changes over the lowest IRF2-expressing specimen, which was set equal to 1. Statistical analysis by Mann-Whitney U test, **p<0.01; (C) TAP2 (top) and ERAP1 (bottom) mRNA correlations with IRF2 mRNA in NSCLC specimens. Linear regression models shown with R^2 for goodness of fit. (D-E) Geometric MFI of surface MHC I (left) and PD-L1 (right) on (D) unstimulated or (E) overnight IFNγ-stimulated A549 lines knocked out for IRF2 (“IRF2 KO”) or control (“WT”) or overexpressing IRF2 or empty vector (EV) as control. Bars represent mean +SEM (N=3). Statistical analysis by two-tailed ratio paired t-tests. *p<0.05, **p<0.01, ***p<0.001; (F) Geometric MFI of surface MHC-I and PD-L1 on unstimulated or IFNγ-stimulated human breast carcinoma (BT20 and MCF7) lines knocked out for IRF2 (“IRF2 KO”) or control (“WT”). […] After 4 hours, specific killing was quantified by flow cytometry. […]

[6] = tested on: surface PD-L1 on A549 cells; test: Surface PD-L1 on IFNγ-stimulated A549 (flow cytometry); assay type: cell-based, human; details: overnight IFNγ stimulation
Description: as §3

[7] = tested on: PD-L1 promoter in DC3.2 WT cells; test: ChIP-qPCR of IRF1/IRF2 binding to the PD-L1 promoter after IFNγ stimulation; assay type: cell-based, mouse; details: 2 ng/mL IFNγ for 2 hrs
Procedure: as §2
It is well-established that IRF1 can promote IFNγ-inducible activation of PD-L1^27,28. […]
ChIP procedure generally followed the Thermo Fisher ChIP protocol. […] Chromatin was sheared by sonication for 20 min and fragment size (˜300 bp) was determined by gel electrophoresis. […]

O=C(CCCCCCC(=O)Nc1ccccc1)NO [Vorinostat, Suberoylanilide hydroxamic acid]
expression of IRF2 mRNA [1]: increased
mRNA for IRF2's target gene, TAP2 [2]: increased
surface MHC I (H-2Kb) protein levels [3]: increased

IFNα
surface MHC-I expression in the IRF2-KO DC3.2 ([4]; overnight incubation with 5,000 U/mL IFNα): restored

IFNγ: interferon gamma used to stimulate cells (mouse IFNγ 2 ng/mL for DC3.2)
surface MHC-I expression in the IRF2-KO DC3.2 ([4]; overnight incubation with 2 ng/mL IFNγ): restored
surface MHC-I expression [5]: augmented
surface PD-L1 expression [6]: augmented
IRF1 binding to the PD-L1 promoter [7]: increased IRF1 binding
IRF2 binding to the PD-L1 promoter [7]: decreased IRF2 binding
